Measured values from article PMC12465524, “Cache: Utilizing ultra-large library screening in Rosetta to identify novel binders of the WD-repeat domain of Leucine-Rich Repeat Kinase 2” (Journal of Cheminformatics, 2025).

Key:
[1] = target: T1, Leucine-Rich Repeat Kinase 2 (LRRK2) WDR40 domain (Homo sapiens, UniProt Q5S007); assay: SPR (not confirmed by orthogonal assays); type: binding
T1 construct: WDR40 domain
T1 sequence (Q5S007 2142-2527 limits assumed): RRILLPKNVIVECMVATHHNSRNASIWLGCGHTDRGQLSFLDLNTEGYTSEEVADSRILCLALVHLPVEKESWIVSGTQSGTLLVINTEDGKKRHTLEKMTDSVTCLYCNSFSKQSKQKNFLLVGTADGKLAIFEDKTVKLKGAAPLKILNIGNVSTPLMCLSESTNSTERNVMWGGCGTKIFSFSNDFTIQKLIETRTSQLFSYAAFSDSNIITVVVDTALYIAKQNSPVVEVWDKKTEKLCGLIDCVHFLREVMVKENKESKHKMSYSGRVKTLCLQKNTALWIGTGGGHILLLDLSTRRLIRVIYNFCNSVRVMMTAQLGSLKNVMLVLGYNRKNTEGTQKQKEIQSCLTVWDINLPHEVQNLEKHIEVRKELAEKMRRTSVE

[2] = target: T1, Leucine-Rich Repeat Kinase 2 (LRRK2) WDR40 domain; assay: SPR; weak DSF stabilization (ΔTm […] °C); type: binding

| Kd [1] [µM] | Kd [2] [µM] | SMILES |
| --- | --- | --- |
| 35 |  | O=c1[nH]c2ccc(CNc3cccc(-n4cnnn4)c3)cc2[nH]1 [B, compound B] |
| 59 |  | Cn1nnc(-c2ccccc2)c1CNc1cccc(-n2cnnn2)c1 [A, N-[(1-methyl-4-phenyl-1 H-1,2,3-triazol-5-yl)methyl]-3-(1 H-1,2,3,4-tetrazol-1-yl)-aniline] |
|  | 100 | CSc1ccc(CNc2cccc(-n3cnnn3)c2)cc1 [D, N-[4-(methylsulfanyl)phenyl]methyl-3-(1 H-1,2,3,4-tetrazol-1-yl)aniline] |
